In ChEMBL document CHEMBL1141751, “Latifolians A and B, novel JNK3 kinase inhibitors from the Papua New Guinean plant Gnetum latifolium” (J Nat Prod, 2005):

Target: Mitogen-activated protein kinase 10 (Homo sapiens, UniProt P53779)
Assay: Inhibition of JNK3-induced transfer of [gamma33P]ATP to biotinylated ATF2 by scintillation proximity assay

Sequence of Mitogen-activated protein kinase 10 (P53779 whole entry): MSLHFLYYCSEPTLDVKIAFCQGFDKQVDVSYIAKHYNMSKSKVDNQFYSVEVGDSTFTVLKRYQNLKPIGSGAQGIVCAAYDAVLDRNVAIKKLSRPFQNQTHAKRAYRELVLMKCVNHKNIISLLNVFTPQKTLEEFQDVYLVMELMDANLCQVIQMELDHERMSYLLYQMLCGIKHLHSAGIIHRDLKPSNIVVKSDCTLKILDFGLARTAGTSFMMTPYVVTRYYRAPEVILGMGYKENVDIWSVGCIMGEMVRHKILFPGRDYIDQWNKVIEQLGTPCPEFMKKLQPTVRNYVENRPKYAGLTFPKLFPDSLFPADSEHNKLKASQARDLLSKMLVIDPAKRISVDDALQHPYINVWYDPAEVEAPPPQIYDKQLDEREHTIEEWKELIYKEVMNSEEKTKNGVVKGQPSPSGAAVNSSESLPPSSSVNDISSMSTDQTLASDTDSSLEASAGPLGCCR

IC50 [µM] | SMILES
13 | Oc1cc2c(cc1O)[C@H]1Cc3cc(O)c(O)cc3[N@+]13CCc1cc(O)c(O)cc1[C@@H]3C2 [LATIFOLIAN A]
10 | COc1cc2c(cc1O)C[C@@H]1c3cc(O)c(O)cc3C[C@H]3c4cc(O)c(O)cc4CC[N@@+]213 [LATIFOLIAN B]
